A short description of data set [1]: In vitro release of antimicrobials from expanding ECells (RHPLC). The data set is classed as physicochemical. The note with it: dPBS, 37° C., FIG. 18.
Protocol: Each formulation was loaded with antimicrobial in varying concentrations (see Table 1) and was injected as ≈100 μl into 4 ml Dulbecco's Phosphate-buffered Saline (dPBS), in a glass vial, and incubated at 37° C. in atmospheric air, only taken out when samples were collected and new dPBS was added. Sample collection proceeded by removing all dPBS possible with a pipette, weighing the expanding ECells, then saving 1 ml for analysis, returning the rest, and adding new dPBS until 4,000 mg of water was present.
At each chosen time point, 1 ml of the release medium was collected and RHPLC analysis was carried out. […] Solution A was an aqueous mixture of 5% v/v MeCN and 0.01% TFA. […] Rifamycin splits into several peaks over time, and the total AUC of all peaks were used for quantification and standard curve generation.
For data set [2] the following is noted: cited from earlier work.
Data set [3] can be described thus: Lipids/surfactants in ECell: solubility and expansion in PBS (images). The data set is classed as physicochemical. To be noted: for ECell expansion compared to the reference: LOIB:CAB:DMSO:Surfactant 66.5:2.5:30:1, PBS, reference LOIB:CAB:DMSO 67.5:2.5:30; for ECell expansion compared to the reference / shape of the depot compared to reference: 37° C.; for appearance of ECell compositions containing the lipid/surfactant: 1% w/w (RGD lipids 0.1%), with and without 2.5% CAB polymer; for shape of the depot compared to reference: ECells without CAB, LOIB:GTH:DMSO:Surfactant 69:10:20:1, PBS. On the procedure:
Different surfactants were formulated in expandable (w CAB, Mn 12000) vs non-expandable (w GTH) ECell formulations in a concentration of 1% w/w. […] Gel formulations containing each surfactant were prepared in 600 mg aliquots.
Duplicates consisting of 100 μL gel depots of each ECell formulation were injected into 2 mL PBS buffer. Samples were incubated at 37° C., and images of a non-expandable vs an expandable ECell containing the same surfactant side-by-side were taken at 1.5 h and 2 days and 7 days post injection to investigate and document surfactant effects on ECell expansion.

Data set [4] in a line: Solvent type and ECell expansion in PBS (visual inspection of images). The note with it: LOIB:CAB (Mn 12000):Solvent 67.5:2.5:30, 100 μL in 2 mL PBS, 37° C., 1.5 h, 2 days, 7 days pi. The data set is classed as physicochemical. On the procedure:
These ECells were prepared to study eventual surface and expansion effects of the specific solvent type on LOIB:CAB compositions. ECell formulations were prepared in 900 mg aliquots. 12 h stability at room temperature (RT) was investigated and documented in images. Only soluble formulations of appropriate viscosity were injected as gel depots into PBS (100 μL, for visual inspection). Duplicates consisting of 100 μL ECell depots of each clear formulation were injected into 2 mL PBS buffer for inspection. Samples were kept at 37° C., and images of each injected gel depot composition were recorded at 1.5 h and 2 days and 7 days post injection (pi) to investigate and document effects of solvent type on the depots.

The nature of data set [5]: In vitro release of MMP / gp-130 inhibitors from expanding ECells (RHPLC). The data set is classed as physicochemical. To be noted: 5 mg/g in LOIB:CAB(12 kDa):DMSO (65:5:30), dPBS, 37° C.
Protocol: The in vitro release profile of three inhibitor compounds were elucidated from a LOIB:CAB(12 kDa):DMSO (65:5:30) formulation. […] Loading of inhibitors were done by adding the desired concentration in mg per g of expanding ECells and stirring on a magnetic stirrer at room temperature until the solution became clear.
Each compound was loaded as 5 mg/g in the expanding ECell formulation and injected in 4 ml Dulbecco's Phosphate-buffered Saline (dPBS) as ≈100 μl, in triplicates, and incubated at 37° C. At chosen time points (see FIG. 19a), all dPBS was removed by pipetting, the expanding ECells+potentially absorbed water was weighed, and its weight noted down, 1 ml dPBS was collected for release quantification, and the remaining dPBS+fresh dPBS to a total of 4 ml (4 g) was added.
Weight data was used to generate a graph of the relative expanding ratio as a function of time (FIG. 19b), and from the 1 ml collected, RHPLC analysis was carried out. […] Solution A was an aqueous mixture of 5% v/v MeCN and 0.01% TFA.
How the values of data set [6] were obtained:
After addition of LOIB and DMSO, each ECell formulation was sonicated at 75° C. for 2 hrs and vortexed every 30th minute.

For `CO[C@H]1/C=C/O[C@@]2(C)Oc3c(C)c(O)c4c(O)c(cc(O)c4c3C2=O)NC(=O)/C(C)=C\C=C\[C@H](C)[C@H](O)[C@@H](C)[C@@H](O)[C@@H](C)[C@H](OC(C)=O)[C@@H]1C` [Rifamycin SV], the “in vitro release rate (comparison in words)” value in data set [1] is “relatively slower release rate”. The “log P” value in data set [2] is on record as 4.17.
`CCCCCCCC/C=C\CCCCCCCC(=O)O` [Oleic acid]: in data set [3], the “ECell expansion compared to the reference” value was “slightly reduced”.
On to `CN1CCCC1=O` [NMP, N-methyl pyrrolidone], for which the “expansion of the ECell by solvent, as judged by the eye” value (“expansion of the ECell by solvent” below) in data set [4] was “cause expansion of the ECell”.
Still for that read-out and setting: the value for `CCO` [EtOH, Ethanol] was “did not expand”.
Consider `CCCCCCCCCCCC(=O)OCC(O)CO` (stereo not shown) [Monolaurin], for which, in data set [3], the “appearance of ECell compositions containing the lipid/surfactant” value is recorded as “Homogeneous” and the “ECell expansion compared to the reference” value is reported as “relatively similar to the reference”.
Turning to Tween 80, in data set [3], the “appearance of ECell compositions containing the lipid/surfactant” value is on record as “Homogeneous”, the “shape of the depot compared to reference” value was “slight flattening of the depot compared to reference” and the “ECell expansion compared to the reference” value is “slightly reduced”.
As for LMT-28, the “cargo released in vitro after 42 days” value in data set [5] worked out at 10%. For the same molecule, in data set [2], the “log P” value is listed as 3.71.
As for “1,2-Dimyristoyl-rac-glycero-3-methoxypolyethylene glycol-2000 [DMG-PEG2K]”, in data set [3], the “appearance of ECell compositions containing the lipid/surfactant” value was “Homogeneous” and the “ECell expansion compared to the reference” value was “slightly reduced”.
`O=S(=O)(CC1CS1)c1ccc(Oc2ccccc2)cc1` (stereo not shown) [SB-3CT]: the “cargo released in vitro after 42 days” value in data set [5] is reported as “about 5%”. For the same molecule, the “log P” value in data set [2] is 2.75.
For `CN(C)C=O` [DMF, Dimethyl formamide], the “expansion of the ECell by solvent” value in data set [4] is on record as “cause expansion of the ECell”.
As to `CC(C)CCC[C@@H](C)[C@H]1CC[C@H]2[C@@H]3CC=C4C[C@@H](OC(=O)CCC(=O)O)CC[C@]4(C)[C@H]3CC[C@]12C` [CHEMS, cholesteryl hemisuccinate], in data set [3], the “appearance of ECell compositions containing the lipid/surfactant” value was “Homogeneous”, the “shape of the depot compared to reference” value is “slight flattening of the depot compared to reference” and the “ECell expansion compared to the reference” value is on record as “relatively similar to the reference”.
Take PEG(10)-monolaurate: in data set [3], the “appearance of ECell compositions containing the lipid/surfactant” value is listed as “Homogeneous” and the “ECell expansion compared to the reference” value is on record as “slightly reduced”.
As to `CCCCOC(C)=O` [BuAc, Butyl acetate], in data set [4], the “expansion of the ECell by solvent” value is reported as “did not expand”.
On the same count and under the same terms, under `CC1COC(=O)O1` (stereo not shown) [PC, Propylene carbonate] stands “did not expand”.
`CCCCCCCCCCCC(=O)O` [Lauric acid]: in data set [3], the “appearance of ECell compositions containing the lipid/surfactant” value is listed as “Homogeneous” and the “ECell expansion compared to the reference” value is “relatively similar to the reference”.
For PEG(20)-monooleyl ether, the “appearance of ECell compositions containing the lipid/surfactant” value in data set [3] is reported as “Homogeneous”.
Take `C[S+](C)[O-]` [DMSO, Dimethyl sulphoxide]: the “expansion of the ECell by solvent” value in data set [4] is “cause expansion of the ECell”.
The same measure, in the same setting: the value for `OCc1ccccc1` [BnOH, Benzyl alcohol] was “did not expand”.
On to “Cellulose Acetate [Cellulose Acetate (Mn=30,000)]”, for which the “solubility in LOIB:DMSO ECell” value in data set [6] is given as “insoluble”.
Regarding `CNC(=O)[C@H](Cc1ccccc1)NC(=O)[C@H](CC(C)C)[C@H](CSc1cccs1)C(=O)NO` [Batimastat], the “log P” value in data set [2] is given as 3.27.

Broadly, the log P is the decadic logarithm of the partition coefficient of the neutral form, usually between octanol and water.

Values taken from US20260174910A1, “POROUS EXPANDING BIOCOMPATIBLE SCAFFOLDS” (DANMARKS TEKNISKE UNIVERSITET, priority 2022, published 2026).
